The conditions of data set [1]: orally administered as homogeneous liquid suspension, relative to equivalent intravenous dose of propofol; cited from earlier work.
For data set [2] the following is noted: oral dosing, rats; cited from earlier work.
The subject of the next data set is male rats. Nature of the data set: Multiple dose study in rats (five days, once a day). Type of data set: in vivo. The conditions noted are these: oral gavage once a day for five days, 49 to 97 mg-eq/kg. The method, then:
Multiple dose studies in rats were performed by orally administering compound (2) formulated in water to groups of male rats at doses of 49 mg-eq/kg to 97 mg-eq/kg for a period of five days, by oral gavages administered once a day.

The next data set concerns male beagle dogs. Nature of the data set: Acute toxicity study, single oral dose in dogs. Type of data set: in vivo. Here is the method:
Acute toxicity studies were also performed by orally administering a single dose of compound (2) formulated in water to groups of male beagle dogs at doses from about 25 mg-eq/kg to about 150 mg-eq/kg.

Another data set relates to rats. Nature of the data set: Acute toxicity study, single oral dose in rats. Type of data set: in vivo. Here is the method:
Acute toxicity studies in rats were undertaken to assess the tolerance of a single oral dose of compound (2) formulated in water. […] Complete recovery from hypoactivity, sedation, and anesthesia occurred in all rats within about 8 hours after dose. Doses above about 1552 mg-eq/kg (about 800 mg-eq/kg of propofol) were not tested.

For data set [3] the following is noted: cited from earlier work.
Setting [4] is: rats, single oral dose about 49 to about 388 mg-eq/kg.
Setting [5] is: rats, single oral dose about 582 to about 970 mg-eq/kg.
[6] abbreviates: rats, single oral dose about 1164 to about 1552 mg-eq/kg.

In the case of `CC(C)c1cccc(C(C)C)c1O` [propofol, 2,6-diisopropylphenol], the oral bioavailability result in data set [1] is “less than 5%”. Also, in data set [2], the “administered drug undergoing first pass metabolism” value was “approximately 90%”.
For `CC(C)c1cccc(C(C)C)c1OC(=O)OC[C@H](N)C(=O)O` (stereo in doubt) [Compound (2), 2-amino-3-(2,6-diisopropyl-phenoxycarbonyloxy)-propanoic acid], in the data set on male rats, the adverse effects entry is given as “No adverse effects were observed”, the sedation or anesthesia entry is “No sedation or anesthesia was observed” and the “tolerance of multiple doses” value is “well tolerated”. The “tolerance of a single oral dose” value in the data set with male beagle dogs (formulated in water, about 25 to about 150 mg-eq/kg) is listed as “well tolerated”. Moreover, the sedation or anesthesia entry in the data set with male beagle dogs (single oral dose about 25 to about 150 mg-eq/kg) was “No sedation or anesthesia was observed”. Moreover, in the data set on rats (all rats, single oral dose), the “complete recovery from hypoactivity, sedation, and anesthesia, time after dose” value is not above 8 h. Besides, the “tolerance of a single oral dose” value with rats (rats, formulated in water, about 49 to about 1552 mg-eq/kg of administered compound) is given as “well tolerated”. In the data set with rats (setting [4]), the “onset of transient hypoactivity after dose” value was not above 30 min and the “transient hypoactivity maintained, time post dose” value is given as “up to 4 hours”. Besides, in the data set with rats (setting [5]), the “onset of sedation after dose” value was not above 1.5 h and the “sedation lasted, time post dose” value is recorded as “up to 4 hours”. In the data set on rats (setting [6]), the “anesthesia lasted, time post dose” value is given as “up to 2 hours” and the “onset of anesthesia after dose” value is not above 1 h.
For `CC(C)c1cccc(C(C)C)c1OCOP(=O)(O)O` [O-phosphonooxymethyl propofol], the “time to maximum propofol concentration” value in data set [3] (oral administration) is “about 30 minutes”. Further, in data set [3] (rats, relative to equivalent intravenous dose of propofol), the propofol oral bioavailability is 22.2%.
